The structures appear in SMILES notation.

For orientation: melting point means the temperature of the solid-liquid transition. As for `C=C(C)c1cc(Br)c(Oc2nc(C)nc(N3CCOCC3)n2)c(OC)c1` [Example 5, 2-[2-bromo-6-methoxy-4-(1-methylethenyl)phenoxy]-4-methyl-6-(4-morpholinyl)-1,3,5-triazine], the melting point lay in the range of 63 to 67 °C. `C=C(C)c1cc(Br)c(Oc2nc(C)nc(N3CCOCC3)n2)c(OC)c1` [Example 6, 2-[2-bromo-6-methoxy-4-(1-methylethenyl)phenoxy]-4-methyl-6-(4-morpholinyl)-1,3,5-triazine] yielded a melting point of 131 to 133 °C.

For the origin of these results see patent US6818648B2, “Aryloxy- and arylthiosubstituted pyrimidines and triazines and derivatives thereof” (Bristol-Myers Squibb Pharma, priority 1996, dated 2004).
